Patent US10676755B2, “Mutated acetohydroxyacid synthase genes in euphorbiaceae and plant material comprising such genes” (priority 2015, dated 2020)

What was measured:
[1] = tested on: canola ALS mutant in CHI bacterial cells; assay: bacterial spot test, serially-diluted cells on herbicide plates; type: cell-based; details: positive control canola ALS mutant
Experimental: (§1) Mutations were generated by site-directed mutagenesis (SDM) of the wild-type Cassava AHAS gene 1 and transformed into CHI bacterial cells lacking the endogenous AHAS homolog. Serially-diluted cells were plated onto plates with increasing concentrations of either imazamox (IM) or flumetsulam (TP). Cassava AHAS wt and a canola ALS mutant known to be highly herbicide tolerant were used as negative and positive controls, respectively. Representative set of bacterial spot tests showing the positive and negative controls, some other mutants tested and the W574S mutant. The herbicide concentrations listed on the left-most column correspond to the entire row and columns separate different lines. Each spot test consists of four 1:10 serial dilutions (10-3, 10-4, 10-5 and 10-6) after normalization based on the OD600 of each M9 liquid culture.
as §1, with “D376A” for “W574S”

[2] = tested on: cassava AHAS D376A mutant in CHI bacterial cells; assay: kill curve assay, colonies counted on herbicide plates; type: cell-based, Cassava (Manihot esculenta)
Experimental: (§2) Mutants were also tested using a “kill curve” assay where equal numbers of cells containing the mutant of interest were plated onto plates with increasing concentrations of herbicide and the number of resulting colonies counted. Kill curve results averaged between three experiments, each with an average of three technical replicates. Error bars are ±one standard deviation of the averaged data. Results are depicted in FIG. 8.

[3] = tested on: cassava AHAS W574S mutant in CHI bacterial cells; assay: bacterial spot test, serially-diluted cells on herbicide plates; type: cell-based, Cassava (Manihot esculenta); details: similar to the canola positive control
Experimental: as §1

[4] = tested on: cassava AHAS W574L mutant in CHI bacterial cells; assay: kill curve assay, colonies counted on herbicide plates; type: cell-based, Cassava (Manihot esculenta); details: growth is inconsistent
Experimental: (§3) Mutants were also tested using a “kill curve” assay where equal numbers of cells containing the mutant of interest were plated onto plates with increasing concentrations of herbicide and the number of resulting colonies counted. Kill curve results averaged between three experiments, each with an average of three technical replicates. Error bars are ±one standard deviation of the averaged data. Results are depicted in FIG. 6.
as §2

[5] = tested on: wt cassava AHAS gene in CHI bacterial cells lacking the endogenous AHAS homolog; assay: bacterial spot test, serially-diluted cells on herbicide plates; type: cell-based, Cassava (Manihot esculenta); details: negative control wt cassava AHAS gene
Experimental: as §1
Mutations were generated by site-directed mutagenesis (SDM) of the wild-type Cassava AHAS gene 1 and transformed into CHI bacterial cells lacking the endogenous AHAS homolog. Serially-diluted cells were plated onto plates with increasing concentrations of either imazamox (IM) or flumetsulam (TP). Cassava AHAS wt and a canola ALS mutant known to be highly herbicide tolerant were used as negative and positive controls, respectively. […]

[6] = tested on: cassava AHAS D376A mutant in CHI bacterial cells; assay: as above; type: cell-based, Cassava (Manihot esculenta)
Experimental: as §1, with “D376A” for “W574S”

[7] = tested on: cassava AHAS W574L mutant in CHI bacterial cells; assay: as above; type: cell-based, Cassava (Manihot esculenta); details: growth is inconsistent
Experimental: as §1, with “D376A” for “W574S”

[8] = tested on: cassava AHAS W574S mutant in CHI bacterial cells; assay: kill curve assay, colonies counted on herbicide plates; type: cell-based, Cassava (Manihot esculenta)
Experimental: as §3

| Compound | growth of cells on plates containing herbicide [1] | herbicide concentration at which all growth ceased [1] [mM] | tolerance to herbicide [2] | growth of cells on plates containing herbicide [3] | tolerance to herbicide [4] | growth of cells on plates containing herbicide [5] | tolerance to herbicide [6] | tolerance to herbicide [7] | tolerance to herbicide [8] |
| --- | --- | --- | --- | --- | --- | --- | --- | --- | --- |
| COCc1cnc(C2=NC(C)(C(C)C)C(=O)N2)c(C(=O)O)c1 (stereo not drawn) [IM, imazamox] | grew on all concentrations | 5 | robust tolerance | robust growth | robust tolerance | failed to grow | robust tolerance | robust tolerance | – |
| Cc1ccn2nc(S(=O)(=O)Nc3c(F)cccc3F)nc2n1 [TP, flumetsulam] | grew on all concentrations | 5 | – | robust growth | robust tolerance | failed to grow | – | robust tolerance | enhanced tolerance |
